{"source": "patent US20230364204A1", "about": "“Bioactive Peptides, Compositions, Production Process, and Use of Bioactive Peptides as Anti-Tumoral Agents” (priority 2022, published 2023)", "key": {"HDFa benign cell line": {"tested_on": "HDFa benign cell line", "experiment": "BrdU cellular proliferation, benign cells", "assay_type": "cell-based", "conditions": "maximum time of exposure", "experimental": "The method of Bomodeoxyuridine (BrdU) quantification was carried out according to the Standard Operational Protocols Nos. 10 and 12 of the Laboratory of Clinical Cytology of the Faculty of Pharmaceutical Sciences of Ribeirao Preto (FCFRP -USP). In this method, for the BrdU quantification, cells were plated in 96-well sterile plates for cell culture with a cap at the density of 2 × 10^4 cells/well for treatments lasting 24 h and 1 × 10^4 cells/well for treatments with 48 h or more, completing the volume to 100 µL with culture medium. The plates were incubated for 8-16 h in an incubator at 37° C. and 5% CO2. The next day, the treatments were prepared in culture medium, applying 200 µL/well at the desired concentration, and the plates were placed in an incubator at 37° C. and 5% CO2 for the duration of treatment. After the treatment period, 20 µL/well of a BrdU-labeling was added and incubated at 37° C. and 5% CO2 for 2.5 h. After incubation with BrdU labeling, the plates were stored at 2-4° C. up to 1 week. […] Substrate was developed for 15 minutes and reaction was stopped with HCl 6 M solution and read in a spectrophotometer at 495 nm with endpoint.\nThe calculation of cell proliferation was performed using the formula: […]\nO.D.: optical density captured by spectrophotometer NOTE: The Basal O.D. is the one found in the blank wells. […]"}, "MDAMB231 cells": {"tested_on": "MDAMB231 cells", "experiment": "Lactate dehydrogenase (LDH) release", "assay_type": "cell-based", "conditions": "MDAMB231, 24, 48 and 72 h", "experimental": "The lactate dehydrogenase (LDH) is a cytosolic enzyme present in most mammalian cells.\nFor LDH release protocol, after treatments were performed for the MTT protocol, 20 µL of the supernatant of each well was transferred to an EIA/RIA plate. Then, 20 µL/well of the Reaction Mixture from the CyQUANT™ LDH Cytotoxicity Assay kit and reaction was incubated at RT for 30 minutes in the dark. Then, 60 µL/well of the Stop Solution from the kit was added and plate was read in a spectrophotometer at both 490 nm and 650 nm.\nThe calculation of LDH release was performed as follows: • 1. The absorbance measured at 650 nm was subtracted from the absorbance measured at 490 nm. • 2. This formula was applied: […]\nO.D.: optical density captured by spectrophotometer NOTE: The Basal O.D. is the one found in the blank wells (only reaction mixture and stop solution).\n(§1) In order to determine the effects of the peptide in LDH release, autophagy induction and apoptosis/necrosis profile of MDAMB231 cell line, the Analysis of Variance (ANOVA) with Dunnet and Bonferroni post-hoc tests were applied to the significance of 5% in GraphPad Prism software version 6.0."}, "MDAMB231 cell line": {"tested_on": "MDAMB231 cell line", "experiment": "Apoptosis/necrosis flow cytometry (Annexin V-FITC / propidium iodide)", "assay_type": "cell-based", "excerpt": "Annexin V is a potent marker for apoptosis since it binds to the phosphatidylserine of the cell membrane. This binding only occurs when the phosphatidylserine is externalized in the membrane, which is one of the first signals of apoptosis death. Meanwhile propidium iodide only enters the cells after a membrane rupture and can indicate a final step to cell death. The double labeling with these markers allows to distinguish apoptosis and necrosis death through the following characterization: • Annexin V^- / Pl^-: live cells • Annexin V^+ / Pl^-: cells in early apoptosis • Annexin V^+ / Pl^+: cell in late apoptosis • Annexin V^- / Pl^+: cells in necrosis\nFor Apoptosis/ Necrosis protocol, cells were plated 6-well sterile plates for cell culture with a cap at the density of 2.5 × 10^5 cells/well for treatments lasting 24 h or more, completing the volume with 1000 µL culture medium. The plates were incubated for 8-16 h in an incubator at 37° C. and 5% CO2. The next day, the treatments were prepared in culture medium, applying 2000 µL/well at the desired concentration, and the plate was placed in an incubator at 37° C. and 5% CO2 for the duration of treatment. After the treatment period, cells were collected in a conic 15 mL tube and washed with 200 µL of binding buffer (1×) from the FITC Annexin V Apoptosis Detection Kit I. Cells were resuspended in 100 µL/tube of binding buffer (1×) and 1 µL of Annexin V-FITC was added to each tube except the blank. Cells were then incubated for 20 min. in ice and in the dark. Then, 50 µL/tube of binding buffer was added and cells were labeled with 2 µL of Propidium Iodide (PI) at 100 µg/mL and read at the flow cytometer for size and fluorescent content (FITC and PI).\nas §1"}, "[1]": {"tested_on": "MDA-MB-231 cells implanted in zebrafish larvae", "experiment": "Zebrafish xenograft model of MDAMB231 (primary tumor and metastasis)", "assay_type": "in vivo", "experimental": "Transgenic Tg(fli1:EGFP)y1 zebrafish embryos were raised at 28° C. for 48 hours in E3 embryo medium 0.2 mM 1-Phenyl-2-Thiourea aka PTU. […] MDA-MB-231 cells were labeled with Dil red fluorescent dye. Approximately 700 Dil Labeled cancer cells were subcutaneously co-implanted into the perivitelline space of 2 days old larvae ± 3-NantC peptide at […]. Larvae in which tumor cells had been inadvertently injected into circulation or larvae with erroneous implantation of the tumor in the yolk rather than the perivitelline space were excluded from the study. Selected tumor bearing embryos were sorted into experimental groups (20 embryos/group), and pictures of primary tumors were taken right after injection. Doxorubicin treatment was added to embryo water at 2.5 µg/mL according to the study plan. Tumor-bearing embryos were incubated in E3/PTU medium for 72 h at 36° C. After incubation, pictures of the primary tumors and the CVP were taken using a red fluorescent filter. Larvae that died or were lost by other means during the study were excluded from the final analysis.\nImages obtained right after implantation (day 0) and after 72 h incubation (day 3) were analyzed by using in-house developed software. Tumor growth regression was calculated and normalized to the negative control group. The number of metastasized cells was counted manually. One-way ANOVA was performed followed by two-tailed Student’s t-test. Definitive outliers were detected using the ROUT method with a Q=1%. Graphs and example images, and experimental data were obtained/analyzed by using GraphPad Prism v9.0.2."}}}
{"molecule": "CSCC[C@H](N)C(=O)N[C@@H](Cc1ccccc1)C(=O)N[C@@H](Cc1ccc(O)cc1)C(=O)N1CCC[C@H]1C(=O)N[C@@H](CC(=O)O)C(=O)N[C@@H](CO)C(=O)N[C@@H](CCCNC(=N)N)C(=O)N[C@@H](CS)C(=O)N[C@@H](CCCNC(=N)N)C(=O)NCC(=O)N1CCC[C@H]1C(=O)N[C@@H](CO)C(=O)N[C@@H](CCC(=O)O)C(=O)N[C@H](C(=O)O)[C@@H](C)O", "note": "[3-NAntC, [H]-MFYPDSRCRGPSET-[OH]]", "values": [{"measurement": "effect on proliferation of benign cells (BrdU)", "setting": "HDFa benign cell line", "result": "did not alter the proliferation"}, {"measurement": "LDH release", "setting": "MDAMB231 cells", "result": "does not show any significant increase"}, {"measurement": "percentage of cells in necrosis", "setting": "MDAMB231 cell line; MDAMB231, 24 and 48 h, 0.8 µg/mL", "result": "maintaining the percentage of cells in necrosis"}, {"measurement": "increase of apoptosis rate", "setting": "MDAMB231 cell line; MDAMB231, 24 h, 0.8 µg/mL", "result": "about 20%"}, {"measurement": "increase of apoptosis rate", "setting": "MDAMB231 cell line; MDAMB231, 48 h, 0.8 µg/mL", "result": "about 20%"}, {"measurement": "increase of apoptosis rate", "setting": "MDAMB231 cell line; MDAMB231, 72 h, highest dosage", "result": 28.73, "unit": "%"}, {"measurement": "decrease of metastatic cells", "setting": "[1]; 75 and 125 mg/mL", "result": "about 60%"}, {"measurement": "decrease of tumor cells (primary tumor)", "setting": "[1]; 72 h, 3-NantC co-implanted at 75, 100 or 125 mg/mL, Doxorubicin 2.5 µg/mL in embryo water", "result": 75, "unit": "%"}, {"measurement": "decrease in metastatic cells", "setting": "[1]; very low concentrations (FIG. 17)", "result": "about 40%"}]}
